Results taken from patent publication US5486512A, “Quinazoline derivatives as acetylcholinesterase inhibitors” (priority 1994, dated 1996).
Like-named read-outs stand apart in the source and are kept apart here.

Columns and labels:
Type in all cases: biochemical
[1] = target: T1, Human Red Blood Cell AChE (Homo sapiens, UniProt P22303); assay: Inhibition of human red blood cell acetylcholinesterase in vitro (radiometric assay of Johnson and Russell, modified)
T1 construct: from tissue; host or cells: human red blood cells
T1 sequence (P22303 other isoform, or with tags, fused parts or gaps): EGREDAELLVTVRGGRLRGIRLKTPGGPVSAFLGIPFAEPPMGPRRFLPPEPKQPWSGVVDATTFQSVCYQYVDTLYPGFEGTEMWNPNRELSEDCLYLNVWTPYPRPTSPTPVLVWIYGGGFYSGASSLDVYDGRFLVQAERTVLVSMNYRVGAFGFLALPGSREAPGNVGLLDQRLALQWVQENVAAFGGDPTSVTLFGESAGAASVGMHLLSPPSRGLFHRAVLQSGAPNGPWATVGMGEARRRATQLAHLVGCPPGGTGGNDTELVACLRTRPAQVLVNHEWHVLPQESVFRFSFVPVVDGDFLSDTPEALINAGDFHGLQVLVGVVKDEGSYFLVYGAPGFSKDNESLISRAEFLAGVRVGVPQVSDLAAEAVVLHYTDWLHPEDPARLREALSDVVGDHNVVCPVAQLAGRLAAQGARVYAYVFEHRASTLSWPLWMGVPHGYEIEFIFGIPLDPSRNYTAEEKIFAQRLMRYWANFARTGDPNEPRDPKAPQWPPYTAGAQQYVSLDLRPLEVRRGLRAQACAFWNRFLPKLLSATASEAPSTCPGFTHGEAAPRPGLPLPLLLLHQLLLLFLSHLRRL
Text: (§1) The in vitro data was obtained according to the radiometric assay of C. D. Johnson and R. L. Russell described in Anal. Biochem., 64:229-238 (1975) and modified as described by M. R. Emmerling and H. M. Sobkowicz in Hearings Research, 32:137-146 (1988); the rat brain homogenate acetylcholinesterase inhibition data were obtained by the Ellman assay, described by G. L. Ellman, D. Courtney, V. Andres, and R. M. Feathersome, described in Biochem. Pharmacol. 7:88-95 (1961), and modified as described by M. J. Marks, D. M. Patinkin, L. D. Artman, J. B. Busch, and A. C. Collins in Pharmacol. Biochem. and Behav.15:271-279 (1981), which references are incorporated herein.

Electric Eel AChE = Electric Eel AChE (Electrophorus electricus, UniProt O42275); assay: Inhibition of electric eel acetylcholinesterase in vitro
Electric Eel AChE, sequence (O42275 24-633): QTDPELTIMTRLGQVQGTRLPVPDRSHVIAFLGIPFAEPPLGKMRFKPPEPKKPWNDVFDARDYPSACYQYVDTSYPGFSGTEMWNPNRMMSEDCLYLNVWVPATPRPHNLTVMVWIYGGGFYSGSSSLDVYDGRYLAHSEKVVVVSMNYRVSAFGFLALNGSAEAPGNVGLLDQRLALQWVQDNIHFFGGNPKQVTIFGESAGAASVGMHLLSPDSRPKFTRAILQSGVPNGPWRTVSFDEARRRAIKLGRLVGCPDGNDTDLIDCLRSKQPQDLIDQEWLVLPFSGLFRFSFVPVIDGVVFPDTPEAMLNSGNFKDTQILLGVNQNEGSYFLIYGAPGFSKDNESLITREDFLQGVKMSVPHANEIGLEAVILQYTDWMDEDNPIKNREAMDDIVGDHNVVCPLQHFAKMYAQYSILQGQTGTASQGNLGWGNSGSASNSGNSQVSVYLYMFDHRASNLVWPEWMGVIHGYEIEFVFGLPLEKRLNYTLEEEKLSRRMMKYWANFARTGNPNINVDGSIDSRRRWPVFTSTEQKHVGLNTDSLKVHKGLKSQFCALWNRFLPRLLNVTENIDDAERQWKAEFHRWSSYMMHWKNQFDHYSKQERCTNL
Text: as §1

[2] = target: T2, Rat Brain Homogenate AChE (Rattus norvegicus, UniProt P37136); assay: Inhibition of rat brain homogenate acetylcholinesterase (Ellman assay, modified); settings: Table I
T2 construct: rat brain homogenate acetylcholinesterase; from tissue; host or cells: rat brain homogenate
T2 sequence (P37136 32-614): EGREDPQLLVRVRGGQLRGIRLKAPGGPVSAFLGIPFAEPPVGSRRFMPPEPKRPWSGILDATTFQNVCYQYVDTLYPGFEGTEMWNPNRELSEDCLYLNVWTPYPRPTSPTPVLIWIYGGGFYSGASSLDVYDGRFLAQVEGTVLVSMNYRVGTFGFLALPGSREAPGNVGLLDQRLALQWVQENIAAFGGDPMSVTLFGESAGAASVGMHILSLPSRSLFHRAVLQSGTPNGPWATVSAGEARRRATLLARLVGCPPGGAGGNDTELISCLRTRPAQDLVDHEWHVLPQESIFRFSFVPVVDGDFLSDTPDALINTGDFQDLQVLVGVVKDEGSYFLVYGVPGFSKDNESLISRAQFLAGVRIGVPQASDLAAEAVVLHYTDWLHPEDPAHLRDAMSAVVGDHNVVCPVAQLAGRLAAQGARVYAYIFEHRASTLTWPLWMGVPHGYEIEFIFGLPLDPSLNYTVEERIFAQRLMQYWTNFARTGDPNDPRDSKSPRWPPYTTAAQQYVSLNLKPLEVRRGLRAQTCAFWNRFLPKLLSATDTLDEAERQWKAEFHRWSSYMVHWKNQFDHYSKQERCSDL
Text: as §1

[3] = Table II, human red blood cell AChE, read-out: IC50 Human AChE
[4] = Table III, electric eel AChE, read-out: IC50 Eel AChE
[5] = Table I, read-out: Inhibition of Acetylcholinesterase, Human Red Blood Cell AChE
[6] = Table I, read-out: Inhibition of Acetylcholinesterase, Electric Eel AChE

Row | Structure (SMILES) | IC50 [1, 5] [µM] | IC50 (Electric Eel AChE; [6]) [µM] | further results
1 | Clc1cc(Cl)c2c(c1)N=C1C3CC4CC(C3)CC(C4)N1C2 |  |  | IC50 [1, 3]: 0.06 µM
2 | Clc1cc(Cl)c2c(c1)N=C1C3CCC(C3)N1C2 (stereo not drawn) |  |  | IC50 [1, 3]: 0.05 µM
3 | Clc1cc(Cl)c2c(c1)N=C1CCC(c3ccccc3)(c3ccccc3)CN1C2 |  |  | IC50 [1, 3]: 0.063 µM
4 | CC1(C)CC2=Nc3cc(Cl)cc(Cl)c3CN2CC(C)(C)C1 |  |  | IC50 [1, 3]: 2 µM
5 | Clc1cc(Cl)c2c(c1)N=C1C3CCCC(C3)N1C2 (stereo not drawn) |  |  | IC50 [1, 3]: 1 µM
6 | Clc1cc(Cl)c2c(c1)N=C1CCCN1C2 |  |  | IC50 [1, 3]: 0.2 µM
7 | Clc1cc(Cl)c2c(c1)N=C1CCCCN1C2 |  |  | IC50 [1, 3]: 0.06 µM
8 | O=c1c2c(Cl)cc(Cl)cc2nc2n1CCCCC2 |  |  | IC50 [1, 3]: 63 µM
9 | c1ccc2c(c1)CN1CCCC1=N2 |  |  | IC50 (Electric Eel AChE; [4]): 1.6 µM
10 | C1=CC2=Nc3ccccc3CN2C=C1 |  |  | IC50 (Electric Eel AChE; [4]): 1.6 µM
11 | N=c1c2ccccc2nc2n1CCCC2 |  |  | IC50 (Electric Eel AChE; [4]): 1 µM
12 | N=c1c2ccccc2nc2n1CCCCC2 |  |  | IC50 (Electric Eel AChE; [4]): 2 µM
13 | FC(F)(F)c1ccc2c(c1)N=C1CCCCCN1C2 |  |  | IC50 (Electric Eel AChE; [4]): 1 µM
14 | c1ccc(C2(c3ccccc3)CCC3=Nc4ccccc4CN3C2)cc1 |  |  | IC50 (Electric Eel AChE; [4]): 0.37 µM
15 | c1ccc2c(c1)CN1CCCCCCC1=N2 |  |  | IC50 (Electric Eel AChE; [4]): 4.3 µM
16 | c1ccc2c(c1)CN1CCCCCCCC1=N2 |  |  | IC50 (Electric Eel AChE; [4]): 4 µM
17 | c1ccc(C2CC3=Nc4ccccc4CN3C2)cc1 (stereo not drawn) |  |  | IC50 (Electric Eel AChE; [4]): 3.1 µM
18 | Clc1ccc2c(c1)N=C1CC3CCC(C3)N1C2 (racemic) |  |  | IC50 [1, 3]: 0.92 µM
19 | Clc1ccc2c(c1Cl)CN1CCCCCC1=N2 [1,2-DiCl, H2, 1,2-dichloro-6,7,8,9,10,12-hexahydroazepino[2,1-b]quinazoline] | 3.16 |  | 
20 | Cc1c(Cl)cc2c(c1Cl)CN1CCCCCC1=N2 [1,3-DiCl, 2-Me, H2, 1,3-dichloro-2-methyl-6,7,8,9,10,12-hexahydroazepino[2,1-b]quinazoline] | 1 |  | 
21 | Clc1cc(Cl)c2c(c1)N=C1CCCCCN1C2 [1,3-DiCl, H2, 1,3-dichloro-6,7,8,9,10,12-hexahydroazepino[2,1-b]quinazoline] | 0.04 | 0.158 | IC50 [2]: 0.172 µM
22 | Clc1ccc(Cl)c2c1CN1CCCCCC1=N2 [1,4-DiCl, H2, 1,4-dichloro-6,7,8,9,10,12-hexahydroazepino[2,1-b]quinazoline] | 0.631 | 0.1 | IC50 [2]: 16.4 µM
23 | Cc1c(Cl)ccc2c1CN1CCCCCC1=N2 [1-CH3,2-Cl, H2, 2-chloro-1-methyl-6,7,8,9,10,12-hexahydroazepino[2,1-b]quinazoline] | 3.98 |  | 
24 | Clc1cccc2c1CN1CCCCCC1=N2 [1-Cl, H2, 1-chloro-6,7,8,9,10,12-hexahydroazepino[2,1-b]quinazoline] | 1.7 |  | 

Row | Structure (SMILES) | IC50 [1, 5] [µM] | IC50 (Electric Eel AChE; [6]) [µM] | further results
25 | Fc1cccc2c1CN1CCCCCC1=N2 [1-F, H2, 1-fluoro-6,7,8,9,10,12-hexahydroazepino[2,1-b]quinazoline] | 1.9 |  | 
26 | Clc1cc2c(cc1Cl)N=C1CCCCCN1C2 [2,3-DiCl, H2, 2,3-dichloro-6,7,8,9,10,12-hexahydroazepino[2,1-b]quinazoline] | 2.5 | 0.398 | IC50 [2]: 17.9 µM
27 | COc1cc2c(cc1OC)N=C1CCCCCN1C2 [2,3-DiOCH3, H2, 2,3-dimethoxy-6,7,8,9,10,12-hexahydroazepino[2,1-b]quinazoline] | 9 | 0.398 | 
28 | Cc1cc(C)c2c(c1)CN1CCCCCC1=N2 [2,4-DiCH3, H2, 2,4-dimethyl-6,7,8,9,10,12-hexahydroazepino[2,1-b]quinazoline] | 0.9 |  | 
29 | Clc1cc(Cl)c2c(c1)CN1CCCCCC1=N2 [2,4-DiCl, H2, 2,4-dichloro-6,7,8,9,10,12-hexahydroazepino[2,1-b]quinazoline] | 0.063 | 0.25 | IC50 [2]: 3.81 µM
30 | CCc1ccc2c(c1)CN1CCCCCC1=N2 [2-C2 H5, H2, 2-ethyl-6,7,8,9,10,12-hexahydroazepino[2,1-b]quinazoline] | 2.5 | 1 | 
31 | Cc1cc(Cl)c2c(c1)CN1CCCCCC1=N2 [2-CH3,4-Cl, H2, 4-chloro-2-methyl-6,7,8,9,10,12-hexahydroazepino[2,1-b]quinazoline] | 0.631 |  | 
32 | Cc1ccc2c(c1)CN1CCCCCC1=N2 [2-CH3, H2, 2-methyl-6,7,8,9,10,12-hexahydroazepino[2,1-b]quinazoline] | 1.8 |  | 
33 | N#Cc1ccc2c(c1)CN1CCCCCC1=N2 [2-CN, H2] | 6.7 | 1.5 | 
34 | Clc1ccc2c(c1)CN1CCCCCC1=N2 [2-Cl, H2, 2-chloro-6,7,8,9,10,12-hexahydroazepino[2,1-b]quinazoline] | 0.5 |  | 
35 | Fc1ccc2c(c1)CN1CCCCCC1=N2 [2-F, H2, 2-fluoro-6,7,8,9,10,12-hexahydroazepino[2,1-b]quinazoline] | 2 |  | 
36 | Clc1ccc2c(c1Cl)N=C1CCCCCN1C2 [3,4-DiCl, H2, 3,4-dichloro-6,7,8,9,10,12-hexahydroazepino[2,1-b]quinazoline] | 1.5 | 0.398 | IC50 [2]: 23.8 µM
37 | Cc1ccc2c(c1)N=C1CCCCCN1C2 [3-CH3, H2, 3-methyl-6,7,8,9,10,12-hexahydroazepino[2,1-b]quinazoline] | 0.61 |  | 
38 | Clc1ccc2c(c1)N=C1CCCCCN1C2 [3-Cl, H2, 3-chloro-6,7,8,9,10,12-hexahydroazepino[2,1-b]quinazoline] |  | 0.2 | IC50 [2]: 1.9 µM
39 | N=c1c2ccc(Cl)cc2nc2n1CCCCC2 [3-Cl, NH, 3-chloro-7,8,9,10-tetrahydroazepino[2,1-b]quinazolin-12(6H)-imine] |  | 0.5 | 
40 | O=c1c2ccc(Cl)cc2nc2n1CCCCC2 [3-Cl, O, 3-chloro-7,8,9,10-tetrahydroazepino[2,1-b]quinazolin-12(6H)-one] |  | 21 | 
41 | S=c1c2ccc(Cl)cc2nc2n1CCCCC2 [3-Cl, S, 3-Chloro-7,8,9,10-tetrahydroazepino[2,1-b]quinazolin-12(6H)-thione] |  | 15.8 | 
42 | Fc1ccc2c(c1)N=C1CCCCCN1C2 [3-F, H2, 3-fluoro-6,7,8,9,10,12-hexahydroazepino[2,1-b]quinazoline] | 2.87 | 0.6 | 
43 | COc1ccc2c(c1)N=C1CCCCCN1C2 [3-OCH3, H2] | 2.8 |  | 
44 | Cc1cccc2c1N=C1CCCCCN1C2 [4-CH3, H2, 4-methyl-6,7,8,9,10,12-hexahydroazepino[2,1-b]quinazoline] | 6 |  | 
45 | Clc1cccc2c1N=C1CCCCCN1C2 [4-Cl, H2, 4-chloro-6,7,8,9,10,12-hexahydroazepino[2,1-b]quinazoline] | 1.5 | 0.631 | 
46 | Fc1cccc2c1N=C1CCCCCN1C2 [4-F, H2, 4-fluoro-6,7,8,9,10,12-hexahydroazepino[2,1-b]quinazoline] | 1.6 | 1.5 | 
47 | c1ccc2c(c1)CN1CCCCCC1=N2 [H, H2] | 1.9 | 0.61 | IC50 [2]: 16 µM
